Experiments:
[1] = biological target: T1, NURR-1/RXRγ (Homo sapiens, UniProt P48443); experiment: Transactivation test, NURR-1-Gal4/RXRγ, luciferase reporter in Cos-7 cells; format: cell-based; conditions: for Emax: COS-7, induction level relative to reference XCT0135908 at 2×10^−5 M (=100%), read-out: hNurr1_RXRgFL Emax (%); for EC50: Cos-7 cells, NURR-1-Gal4/RXRγ, luciferase reporter, read-out: hNurr1_RXRgFL EC50
T1 construct: expressed in transfected cells; host or cells: Cos-7 cells

[2] = test system: dopaminergic neurons of primary culture of rat embryo mesencephalon treated with MPP+; experiment: Neuroprotection in primary culture of rat embryo mesencephalon treated with MPP+ (count of tyrosine hydroxylase expressing cells); format: cell-based; conditions: recombinant human BDNF 10 ng/mL = 100%, 2 days with MPP+
Method: Another in vitro test was carried out with the compounds according to the invention, for the purpose of verifying that the molecules indeed have the expected neuroprotective effect in vitro.
The compounds were tested in a model of primary culture of rat embryo mesencephalon treated with 1-methyl-4-phenylpyridinium (MPP+), which is the active metabolite of 1-methyl-4-phenyl-1,2,3,6-tetrahydropyridine (MPTP). MPP+ enters into dopananergic neurons via the dopamine transporter and causes the death of these dopaminergic neurons. The following protocol was used.
Gestating female rats (15 days of gestation) were euthanized and the rat embryos were removed. The mesencephalons were removed. The tissue was then dissociated mechanically and by using trypsin. The cells collected after centrifugation were distributed into 96-well plates and left to stand for 5 days. The culture conditions made it possible to obtain a cell layer composed of neurons (dopaminergic and others) and astrocytes. On the 6th day, the cells were optionally treated with MPP+ in the presence or absence of test compound. After 2 days of incubation, the cells were fixed and various cell labellings were carried out; staining of the nuclei with the Hoechst fluorescent label and immunolabelling of tyrosine hydroxylase. The cells expressing tyrosine hydroxylase were counted using an image analyzer coupled to an optical microscope.
Recombinant human BDNF trophic factor (10 ng/mL) was used as reference. The activities of the compounds are given as percentages of activity relative to the BDNF reference, the activity of which is arbitrarily defined as being equal to 100%.

[3] = Brain penetration in rats after intravenous administration; format: in vivo; conditions: rat; for Kp at 4 h: male, Wistar, intravenous, 4 mg/kg, ratio of Cmax brain to Cmax plasma after the 4 hours of infusion, rats, read-out: Kp (partition coefficient between the brain and the plasma); for Cmax at 4 h: male Wistar rats, 4 mg/kg iv infusion into the jugular vein for 4 hours, plasma at end of infusion
Method: (§1) Three series of in vivo tests were carried out with compounds representative of the invention, for the purpose of determining their pharmacokinetic plasma profile and their brain penetration.
2. Study of the Brain Penetration in Rats After Intravenous Administration
Male Wistar rats (250-300 g) originating from the establishment Janvier, Le Genest-St-Isle, France were used for this study (4 rats per study). The animals were fed with standard feed for rodents (Purina Mills, St. Louis, Mo.), placed in cages and subjected to light/darkness cycles of 12 h/12 h, the room temperature being maintained at 22±2° C. and the humidity level at 55±10%. The rats were not deprived food before the administration. Water was provided at will throughout the study.
The test compound was administered intravenously at 4 mg/kg by infusion into the jugular vein for 4 hours. For the intravenous administration, the animals were infused with 12 mL/kg of a solution of the test compound, prepared in 2% Cremophor EL/0.9% NaCl.
The animals were sacrificed under anesthesia after 4 hours of infusion. The blood and the brain were collected from each sacrificed animal 0.5 mL of blood collected in 1.5 mL tubes containing 20 μL of evaporated anticoagulant (solution of sodium heparinate at 1000 IU/mL) was centrifuged at 4500 g for 3 min in order to obtain approximately 200 μL of plasma. The plasma was divided up into 2 aliquots of 70 μL minimum, which were stored at −20° C. until they were treated by protein precipitation and then analysis by liquid chromatography coupled to tandem mass spectrometry (LC-MS/MS) in order to quantify the compound tested.
The brains were immersed in liquid nitrogen directly after they were removed, then stored at −20° C. for analysis. The brains were then ground in the presence of an aqueous/organic solvent mixture in order to obtain a homogenate. These homogenates were then centrifuged and the compound tested was extracted from the supernatant obtained, by liquid-liquid extraction, and then quantified by LC-MS/MS.
The brain penetration in the rats is represented by the Kp, which is the partition coefficient between the brain and the plasma. It is calculated by the ratio of the concentration measured in the brain (Cmax brain) and the plasma (Cmax plasma) after the 4 hours of infusion.

[4] = Plasma pharmacokinetics in mice after oral administration; format: in vivo; conditions: mouse, male C57/Bl6 mice, oral 10 mg/kg; for AUC: sampling 15 min to 7 h, log-linear trapezoidal method, read-out: AUCplasma; for Cmax: suspension in 1% methylcellulose/0.1% Poloxamer 188
Method: as §1
1. Study of the Plasma Phannacokinectis in Mice After Oral Administration
Male C57/B16 mice (25-30 g) originating from the establishment Janvier, Le Genest-St-Isle, France were used for this study (9 mice per dose). The animals were fed with standard feed for rodents (Purina Mills, St. Louis, Mo.), placed in cages and subjected to light/darkness cycles of 12 h/12 h, the temperature of the room being maintained at 22±2° C. and the humidity level at 55±10%.
The mice were not deprived food before the administration. Water was provided at will throughout the study. The test compound was admistered orally at 10 mg/kg. For the oral administration at 10 mg/kg, the animals were green, by gavage, 10 mL/kg of a suspension of the test compound, prepared in 1% methylcellulose, 400 cps/0.1% Poloxamer 188/water.
The animals were sacrificed under anesthesia at times 15 min, 30 min, 1 h, 3 h and 7 h after gavage. The blood was collected at each time, and from each animal sacrificed 0.5 mL of blood collected in 1.5 mL tubes containing 20 μL of evaporated anticoagulant (solution of sodium heparinate at 1000 IU/mL) was centrifuged at 4500 g for 3 min in order to obtain approximately 200 μL of plasma. The plasma was divided up into 2 aliquots of 70 μL minimum, which were stoted at −20° C. until they were treated by protein precipitation and then analysis by liquid chromatography coupled to tandem mass spectrometry (LC-MS/MS) in order to quantify the compound tested.
The pharmacokinetic plasma parameters in the mice after oral administration were determined using a non-compartmental approach with the Phoenix WinNonLin software. The area under the curve (AUC0-1) was determined bv the log-linear trapezoidal method. The tesults are brought together in the following table.

[5] = biological target: T2, NURR-1/RXRα (Homo sapiens, UniProt P19793); experiment: Transactivation test, NURR-1-Gal4/RXRα, luciferase reporter in Cos-7 cells; format: cell-based; conditions: for Emax: COS-7, induction level relative to reference XCT0135908 at 2×10^−5 M (=100%), read-out: hNurr1_RXRaFL Emax (%); for EC50: Cos-7 cells, NURR-1-Gal4/RXRα, luciferase reporter, read-out: hNurr1_RXRaFL EC50
T2 construct: expressed in transfected cells; host or cells: Cos-7 cells
T2 sequence (P19793 whole entry, the tested form may be a part): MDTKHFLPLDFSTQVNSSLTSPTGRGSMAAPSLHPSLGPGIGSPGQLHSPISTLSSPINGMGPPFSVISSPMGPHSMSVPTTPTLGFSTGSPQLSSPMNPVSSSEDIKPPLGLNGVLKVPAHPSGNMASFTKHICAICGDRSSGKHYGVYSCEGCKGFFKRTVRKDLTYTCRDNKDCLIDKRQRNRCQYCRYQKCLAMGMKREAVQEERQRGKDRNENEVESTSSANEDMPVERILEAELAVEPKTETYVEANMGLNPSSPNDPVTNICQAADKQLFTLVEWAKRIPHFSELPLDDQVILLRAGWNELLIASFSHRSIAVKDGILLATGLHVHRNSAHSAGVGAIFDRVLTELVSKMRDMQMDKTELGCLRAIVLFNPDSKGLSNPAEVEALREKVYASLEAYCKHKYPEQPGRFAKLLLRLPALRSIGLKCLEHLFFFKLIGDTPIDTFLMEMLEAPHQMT
T2 sequence (P43354 whole entry partner, the tested form may be a part): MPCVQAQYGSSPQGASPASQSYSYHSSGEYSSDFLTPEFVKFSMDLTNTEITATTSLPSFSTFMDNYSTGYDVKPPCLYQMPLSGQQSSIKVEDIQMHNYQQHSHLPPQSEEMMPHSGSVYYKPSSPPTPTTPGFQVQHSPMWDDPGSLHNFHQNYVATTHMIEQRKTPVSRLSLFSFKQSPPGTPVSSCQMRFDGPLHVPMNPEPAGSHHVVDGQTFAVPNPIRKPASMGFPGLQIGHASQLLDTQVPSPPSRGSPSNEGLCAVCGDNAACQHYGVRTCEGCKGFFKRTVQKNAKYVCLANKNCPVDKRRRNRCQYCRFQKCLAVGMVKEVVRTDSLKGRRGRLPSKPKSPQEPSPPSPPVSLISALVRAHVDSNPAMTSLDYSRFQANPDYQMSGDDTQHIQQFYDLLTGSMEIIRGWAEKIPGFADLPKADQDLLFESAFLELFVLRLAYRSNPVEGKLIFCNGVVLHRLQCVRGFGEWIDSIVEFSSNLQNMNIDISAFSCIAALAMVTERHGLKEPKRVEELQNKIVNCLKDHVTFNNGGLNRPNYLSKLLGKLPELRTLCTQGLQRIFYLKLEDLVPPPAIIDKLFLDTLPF
T2 sequence (P04386 1-147 partner limits assumed): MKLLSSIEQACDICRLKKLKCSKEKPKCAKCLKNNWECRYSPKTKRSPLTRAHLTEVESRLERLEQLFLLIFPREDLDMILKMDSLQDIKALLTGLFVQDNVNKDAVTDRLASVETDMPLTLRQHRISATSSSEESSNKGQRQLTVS

T1 sequence (P48443 whole entry, the tested form may be a part): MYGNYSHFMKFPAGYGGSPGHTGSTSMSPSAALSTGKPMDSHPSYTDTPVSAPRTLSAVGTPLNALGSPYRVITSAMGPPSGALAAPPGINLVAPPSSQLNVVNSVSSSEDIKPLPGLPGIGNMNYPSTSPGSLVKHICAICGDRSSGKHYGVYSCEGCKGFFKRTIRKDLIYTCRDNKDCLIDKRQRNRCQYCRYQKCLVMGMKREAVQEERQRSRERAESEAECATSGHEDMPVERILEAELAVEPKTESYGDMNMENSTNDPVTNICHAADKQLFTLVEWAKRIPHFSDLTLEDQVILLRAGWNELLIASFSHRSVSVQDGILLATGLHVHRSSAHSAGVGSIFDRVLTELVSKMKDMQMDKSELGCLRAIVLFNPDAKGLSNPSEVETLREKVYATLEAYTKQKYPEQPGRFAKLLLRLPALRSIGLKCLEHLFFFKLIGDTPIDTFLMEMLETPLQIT
T1 sequence (P43354 whole entry partner, the tested form may be a part): as the sequence (P43354 whole entry partner, the tested form may be a part) above
T1 sequence (P04386 1-147 partner limits assumed): as the sequence (P04386 1-147 partner limits assumed) above

Row | SMILES | Emax [1] | EC50 [1] | percentage of activity relative to the BDNF reference ([2]; compound 1 μM) | percentage of activity relative to the BDNF reference ([2]; compound 10 μM) | Kp at 4 h [3] | Cmax at 4 h [3] | AUC [4] | Cmax [4] | Emax [5] | EC50 [5]
1 | CCCC1Oc2cc(C(F)(F)F)ccc2N(c2cccc(N3CC(C(=O)O)C3)c2)C1=O (stereo not shown) [Example 122, 1-[3-[3-oxo-2-propyl-7-(trofluoromethyl)-1,4-benzoxazin-3-yl]phenyl]azetidine-3-caroxylic acid] | 95% | 14 nM | 92% | 39% | 1.14 | 3860 ng/mL | 34100 ng·h/mL | 7840 ng/mL | 93% | 13 nM
2 | O=C(O)C1CN(c2cccc(N3CCOc4cc(C(F)(F)F)ccc43)c2)C1 [Example 115, 1-[3-[7-(trifluoromethyl)-2,3-dihydro-1,4-benzoxazin-4-yl]phenyl]azetidine-3-carboxylic acid] | 129% | 22 nM | 103% | 77% | 0.22 | 10600 ng/mL | 51600 ng·h/mL | 24400 ng/mL | 114% | 58 nM
3 | CC(C)(C)c1cc(-c2cccc(N3CC(C(=O)O)C3)c2)cc(C(C)(C)C)c1 [Example 11, 1[3-(3,5-di-tert-butylphenyl)phenyl]azetidine-3-carboxylic acid] | 100% | 14 nM | 78% | 88% | 1.22 | 4140 ng/mL | 52000 ng·h/mL | 10300 ng/mL | 105% | 11 nM
4 | O=C(O)C1CN(c2cccc(-c3cc(C(F)(F)F)ccc3OCCc3cccs3)c2)C1 [Example 100, 1-[3-[2-[2-(2-thienyl)ethoxy]-5-(trifluoromethyl)phenyl]phenyl]azetidine-3-carboxylic acid] | 63% | 24 nM | 100% | 106% | 0.75 | 6070 ng/mL | 56600 ng·h/mL | 11200 ng/mL | 63% | 14 nM
5 | Cc1cc(-c2ccc(Cl)c(C(F)(F)F)c2)cc(N2CC(C(=O)O)C2)c1 [Example 22, 1-[3-[4-chloro-3-(trifluoromethyl)phenyl]-5-methylphenyl]azetidine-3-carboxylic acid] | 87% | 13 nM | 79% | 103% | 0.14 | 9900 ng/mL | 72200 ng·h/mL | 18600 ng/mL | 91% | 9 nM
6 | CN(C)Cc1cn(-c2cccc(N3CC(C(=O)O)C3)c2)c2ccc(C(F)(F)F)cc12 [Example 130, 1-[3-[3-(dimethylaminomethyl)-5-(trifluoromethyl)indol-1-yl]phenyl]azetidine-3-carboxylic acid] | 109% | 513 nM | 57% | 103% | 0.13 | 9010 ng/mL | 23000 ng·h/mL | 13800 ng/mL | 113% | 246 nM
7 | Cc1cc(-c2cc(C(C)(C)C)cc(C(C)(C)C)c2)cc(N2CC(C(=O)O)C2)c1 [Example 7, 1-[3-(3,5-di-tertbutylphenyl)-5-methylphenyl]azetidine-3-carboxylic acid] | 97% | 6 nM | 61% | 72% | 0.76 | 6750 ng/mL | 48600 ng·h/mL | 12800 ng/mL | 100% | 4 nM
8 | O=C(O)C1CN(c2cccc(N3CC4(CCC4)Oc4cc(C(F)(F)F)ccc43)c2)C1 [Example 113, 1-[3-[7-(trifluoromethyl)spiro[3H-1,4-benzoxazine-2,1′-cyclobutane]-4-yl]phenyl]azetidine-3-carboxylic acid] | 139% | 4 nM | 90% | 80% | 1.2 | 3430 ng/mL | 3340 ng·h/mL | 2290 ng/mL | 140% | 3 nM
9 | Cc1cc(N2CC(C(=O)O)C2)cc(-n2ccc3cc(C(F)(F)F)ccc32)c1 [Example 50, 1-[3-methyl-5[5-(trifluoromethyl)indol-1-yl]phenyl]azetidine-3-carboxylic acid] | 102% | 5 nM | 74% | 91% | 0.19 | 4920 ng/mL | 24300 ng·h/mL | 11400 ng/mL | 95% | 2 nM
10 | O=C(O)C1CN(c2cccc(N3c4ccc(C(F)(F)F)cc4CC3Cc3ccccc3)c2)C1 (stereo not shown) [Example 147, 1-[3-[2-benzyl-5-(trifluoromethyl)indolin-1-yl]phenyl]azetidine-3 carboxylic acid] | 50% | 87 nM | 53% | 104% | 0.12 | 7910 ng/mL | 143000 ng·h/mL | 33000 ng/mL | 68% | 44 nM

From patent US20170066717A1, “NEW PHENYLAZETIDINECARBOXYLATE OR -CARBOXAMIDE COMPOUNDS” (INVENTIVA, priority 2014, published 2017)
